Measurements published in US20260347373A1, “HETEROCYCLIC COMPOUNDS, COMPOSITIONS THEREOF, AND METHODS OF TREATMENT THEREWITH” (BeOne Medicines I GmbH, priority 2023, published 2026).
Where two headings read alike, the source gives them in different places.

Key:
[1] = biological target: WT KRAS (Homo sapiens, UniProt P01116); assay: KRAS WT Probe Displacement Assay (TR-FRET, GDP-loaded); assay type: binding
Description: (§1) The synthetic routes of probe 1 and 2, which have been disclosed in PCT/CN2022/070676, are hereby incorporated herein.

[2] = biological target: KRAS G12D (Homo sapiens, UniProt P01116, G12D); assay: KRAS G12D Probe Displacement Assay (TR-FRET, GDP-loaded); assay type: binding
Description: as §1

[3] = KRAS WT, read-out: KRAS^WT Probe Displacement Assay IC50
[4] = KRAS G12D, read-out: KRAS^G12D Probe Displacement Assay IC50
[5] = KRAS^WT Probe Displacement Assay IC50, KRAS WT
[6] = KRAS^G12D Probe Displacement Assay IC50, KRAS G12D

Sequence of WT KRAS (P01116 1-188 isoform P01116-2): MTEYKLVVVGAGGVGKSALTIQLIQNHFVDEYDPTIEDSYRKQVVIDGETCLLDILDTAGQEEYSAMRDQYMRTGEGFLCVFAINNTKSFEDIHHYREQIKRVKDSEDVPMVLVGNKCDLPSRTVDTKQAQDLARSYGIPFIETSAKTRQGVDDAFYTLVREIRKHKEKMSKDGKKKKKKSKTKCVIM
Sequence of KRAS G12D (P01116 1-188 isoform P01116-2 G12D): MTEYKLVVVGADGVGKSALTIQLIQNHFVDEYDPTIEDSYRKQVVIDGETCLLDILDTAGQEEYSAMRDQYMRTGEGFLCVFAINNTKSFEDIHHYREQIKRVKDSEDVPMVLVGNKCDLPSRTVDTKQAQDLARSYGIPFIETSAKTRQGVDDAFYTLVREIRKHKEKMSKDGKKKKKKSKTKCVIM

For `Cc1cc(N)cc(-c2nc3c4c(nc(OCC5(CN6CCCC(O)(C(F)(F)F)C6)CC5)nc4c2F)N2C[C@H]4CC[C@H](N4)[C@H]2CCO3)c1C(F)(F)F` (stereo partly drawn) [Example 117, 1-((1-((((6aR,7S,10R)-2-(5-amino-3-methyl-2-(trifluoromethyl)phenyl)-1-fluoro-5,6,6a,7,8,9,10,11-octahydro-4-oxa-3,11a,12,14,15-pentaaza-7,10-methanocyclohepta [4,5]cycloocta [1,2,3-de]naphthalen-13-yl)oxy)methyl)cyclopropyl)methyl)-3-(trifluoromethyl) piperidin-3-ol], the IC50 [1, 3] was 3 to 1000 nM and the IC50 [2, 4] was less than 0.3 nM.

Compound `Cc1cc(N)cc(-c2nc3c4c(nc(OCC5(CN6CC=CC6)CC5)nc4c2F)N2C[C@H]4CC[C@H](N4)[C@H]2CCO3)c1C(F)(F)F` [Example 111, 3-((6aR,7S,10R)-13-((1-((2,5-dihydro-1H-pyrrol-1-yl)methyl)cyclopropyl)methoxy)-1-fluoro-5,6,6a,7,8,9,10,11-octahydro-4-oxa-3,11a,12,14,15-pentaaza-7,10-methanocyclohepta [4,5]cycloocta [1,2,3-de]naphthalen-2-yl)-5-methyl-4-(trifluoromethyl) aniline] has an IC50 [1, 5] of 3 to 1000 nM and an IC50 [2, 6] of less than 0.3 nM.

With `COC1(C)CN(CC2(COc3nc4c5c(nc(-c6cc(N)cc(C)c6C(F)(F)F)c(F)c5n3)OCC[C@@H]3[C@@H]5CC[C@H](CN43)N5)CC2)C1` [Example 84, 3-((6aR,7S,10R)-1-fluoro-13-((1-((3-methoxy-3-methylazetidin-1-yl)methyl)cyclopropyl)methoxy)-5,6,6a,7,8,9,10,11-octahydro-4-oxa-3,11a,12,14,15-pentaaza-7,10-methanocyclohepta [4,5]cycloocta [1,2,3-de]naphthalen-2-yl)-5-methyl-4-(trifluoromethyl)aniline] the IC50 [1, 3] was 3 to 1000 nM and the IC50 [2, 4] was less than 0.3 nM.

Work on `Cc1cc(N)cc(-c2nc3c4c(nc(O[C@@H](C)[C@@H]5CC6(CN5C)CC6(F)F)nc4c2F)N2C[C@H]4CC[C@H](N4)[C@H]2CCO3)c1C(F)(F)F` (single isomer, unassigned) [Example 224] yielded an IC50 [1, 3] of 3 to 1000 nM and an IC50 [2, 4] of less than 0.3 nM.

With `Cc1cc(N)cc(-c2nc3c4c(nc(OCC5(CN6CCC7(CC6)CC(F)(F)C7)CC5)nc4c2F)N2C[C@H]4CC[C@H](N4)[C@H]2CCO3)c1C(F)(F)F` [Example 173, 3-((6aR,7S,10R)-13-((1-((2,2-difluoro-7-azaspiro[3.5]nonan-7-yl)methyl)cyclopropyl)methoxy)-1-fluoro-5,6,6a,7,8,9,10,11-octahydro-4-oxa-3,11a,12,14,15-pentaaza[7,10]methanocyclohepta[4,5]cycloocta[1,2,3-de]naphthalen-2-yl)-5-methyl-4-(trifluoromethyl)aniline] the IC50 [1, 3] was 3 to 1000 nM and the IC50 [2, 4] was less than 0.3 nM.

Compound `COC1CN(CC2(COc3nc4c5c(nc(-c6cc(N)cc(C)c6C(F)(F)F)c(F)c5n3)OCC[C@@H]3[C@@H]5CC[C@H](CN43)N5)CC2(F)F)C1` (single isomer, unassigned) [Example 20] has an IC50 [1, 5] of 3 to 1000 nM and an IC50 [2, 6] of less than 0.3 nM.

Compound `Cc1cc(N)cc(-c2nc3c4c(nc(OCC5(CN6C[C@@H]7[C@@H](CF)[C@@H]7C6)CC5)nc4c2F)N2C[C@H]4CC[C@H](N4)[C@H]2CCO3)c1C(F)(F)F` [Example 170, 3-((6aR,7S,10R)-1-fluoro-13-((1-(((1R,5S,6R)-6-(fluoromethyl)-3-azabicyclo[3.1.0]hexan-3-yl)methyl)cyclopropyl)methoxy)-5,6,6a,7,8,9,10,11-octahydro-4-oxa-3,11a,12,14,15-pentaaza-7,10-methanocyclohepta[4,5]cycloocta[1,2,3-de]naphthalen-2-yl)-5-methyl-4-(trifluoromethyl)aniline] has an IC50 [1, 3] of 3 to 1000 nM and an IC50 [2, 4] of less than 0.3 nM.

In the case of `Cc1cc(N)cc(-c2nc3c4c(nc(OCC5(CN6[C@@H]7CC[C@H]6CC(F)(F)C7)CC5)nc4c2F)N2C[C@H]4CC[C@H](N4)[C@H]2CCO3)c1C(F)(F)F` [Example 175, 3-((6aR,7S,10R)-13-((1-(((1R,5S)-3,3-difluoro-8-azabicyclo[3.2.1]octan-8-yl)methyl)cyclopropyl)methoxy)-1-fluoro-5,6,6a,7,8,9,10,11-octahydro-4-oxa-3,11a,12,14,15-pentaaza-7,10-methanocyclohepta[4,5]cycloocta[1,2,3-de]naphthalen-2-yl)-5-methyl-4-(trifluoromethyl)aniline], the IC50 [1, 3] is reported as 3 to 1000 nM and the IC50 [2, 4] is reported as less than 0.3 nM.
